Key:
[1] = Oral absorbability: plasma concentration of compound 1 after oral administration to mice; conditions: BALB/c mice, 50 mg/kg, suspension in 0.5% HPMC aqueous solution, plasma sampled 0.5-6 hours
Procedure: (§1) After 0.5, 1, 2, 4, and 6 hours from administration, blood of each mouse was collected from the retro-orbital sinus, and the concentration of compound 1 in plasma was measured.

[2] = Differential scanning calorimetry (DSC), phase transition on heating; conditions: when the temperature was increased (10° C./min)
Procedure: DSC measurement was performed under the following conditions.
Device: TA Instruments Q1000
Sample Container: made of aluminum
Temperature Increase Rate: 10° C./min
Atmospheric Gas: Nitrogen
Nitrogen Gas Flow: 50 ml/min

in vivo = conditions: BALB/c, mouse, plasma, po, 50 mg/kg
Procedure: as §1

C=CC(=O)N1CC[C@H](n2nc(C#Cc3cc(OC)cc(OC)c3)c3c(N)ncnc32)C1 [Crystal II, (S)-1-(3-(4-amino-3-((3,5-dimethoxyphenyl)ethynyl)-1H-pyrazolo[3,4-d]pyrimidin-1-yl)-1-pyrrolidinyl)-2-propen-1-one]
AUC [1]: 4.99 µM·h
peak that suggests a phase transition in DSC measurement [2]: did not exhibit a peak that suggests a phase transition

C=CC(=O)N1CC[C@H](n2nc(C#Cc3cc(OC)cc(OC)c3)c3c(N)ncnc32)C1 [Crystal I, (S)-1-(3-(4-amino-3-((3,5-dimethoxyphenyl)ethynyl)-1H-pyrazolo[3,4-d]pyrimidin-1-yl)-1-pyrrolidinyl)-2-propen-1-one]
AUC (in vivo): 9.82 µM·h
peak that suggests a phase transition in DSC measurement [2]: did not exhibit a peak that suggests a phase transition
